Measurements taken from patent US9157908B2, “Chitosan-alginate scaffold cell culture system and related methods” (University of Washington through its Center for …, priority 2011, dated 2015).
Where two headings read alike, the source gives them in different places.

How the values were obtained:
HepG2 cells = experiment: Cellular response to doxorubicin, cell viability by Alamar Blue assay; format: cell-based, human; conditions: for LD50 for doxorubicin: 72 hours post treatment; for viability at 1 µM: Homo sapiens, read-out: viability relative to untreated cells
Method: (§1) Proliferation of cells cultured on 2D wells, Matrigel matrix, and CA scaffolds was determined using the Alamar Blue assay following the manufacturer's protocol. Briefly, cells cultured on 2D wells and 3D scaffolds were washed with D-PBS before adding 1 mL of Alamar Blue solution (10% Alamar Blue in fully supplemented phenol red free DMEM or MEM) to each well.
(§2) For human hepatocellular carcinoma cells, after 2 hrs the Alamar Blue solution was transferred to a 96-well plate to obtain fluorescent values on a SpectraMax M2 microplate reader (Molecular Devices, Sunnyvale, Calif.) at 550 nm excitation, 590 nm emission. Standard curves were generated by seeding cells counted using a hemocytometer onto cell culture materials in triplicate, and performing Alamar Blue assay to generate a plot of linear regression of fluorescent values vs. cell number for each material. The cell number in an experimental sample was calculated based on the standard curve. No background fluorescence was generated by CA scaffolds. Cells were again washed with D-PBS to remove Alamar Blue solution and fresh fully-supplemented media were added to each well.
(§3) For human hepatocellular carcinoma cell-containing scaffolds, after 10 days of culture, media from cell cultures were replaced with 1 mL fully supplemented cell culture media containing various concentrations of doxorubicin. Cells were induced with doxorubicin containing media for 24 h, after which media was replaced with standard fully supplemented cell culture media. Cell viability was assessed using the Alamar Blue assay following the manufacturer's protocol as described above. LD50 was estimated via a polynomial approximation.

PLC/PRF/5 (PLC) cells = experiment: as above; format: cell-based, human; conditions: 72 hours post treatment
Method: as §1, §2, §3

[1] = cited from earlier work

With `COc1cccc2c1C(=O)c1c(O)c3c(c(O)c1C2=O)C[C@@](O)(C(=O)CO)C[C@@H]3O[C@H]1C[C@H](N)[C@H](O)[C@H](C)O1` [doxorubicin] the LD50 for doxorubicin (HepG2 cells; HepG2 cells cultured in 2D substrate) was 0.45 ± 0.18 µM, the LD50 for doxorubicin (HepG2 cells; HepG2 cells in CA) was 13 ± 1.7 µM and the LD50 for doxorubicin (HepG2 cells; HepG2 cells in Matrigel) was 7 ± 2.2 µM. For the same compound, the viability at 1 µM (HepG2 cells; HepG2, 48 h) was 86.7 ± 2.4%, the viability at 1 µM (HepG2 cells; HepG2, 72 h) was 88.6 ± 2.75% and the LD50 of doxorubicin (PLC/PRF/5 (PLC) cells; PLC cells CA cultured) was 4 ± 1.4 µM. For the same compound, the LD50 of doxorubicin (PLC/PRF/5 (PLC) cells; PLC cells Matrigel cultured) was 3 ± 1.1 µM, the LD50 of doxorubicin (PLC/PRF/5 (PLC) cells; PLC cells cultured on 2D surfaces) was 0.2 ± 0.13 µM and the clearance from plasma ([1]; 48 hours post treatment) was “nearly complete clearance”. The peak plasma concentration ([1]; standard dosing schemes, minutes after treatment) was “approximately 15 μM”.
